The record followed here is US20250188030A1, “Biphenyl and Phenylpyridine Compounds” (Pfizer Inc., priority 2023, published 2025).

Read-outs that look alike come from different tables or passages of the source.

Assay [1] deals with H3K9AC (HT1080 cells). The assay can be described thus: H3K9AC Sandwich ELISA Assay in HT1080 cells (KAT2A primary cell-based screening assay). Also noted: species or system Human. The method in brief: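 Acetylated H3K9 quantified by luminescent sandwich ELISA (total H3 capture, H3K9ac detection) on HCl lysates of HT1080 cells. Cells had 24 h compound exposure at 37 °C, top concentration 10 µM, 10-point 3-fold series, 0.1% DMSO; IC50 from four-parameter fitting.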
Background: ELISA stands for enzyme-linked immunosorbent assay.

The subject of assay [2] is MM.1S cells. The assay can be described thus: MM1.S 10 Day Proliferation Assay (CellTiter-Glo). It counts as cell-based, Human. On the procedure:
Human B lymphoblast cell line MM.1S was obtained from American Type Culture Collection (ATCC), Manassas, VA USA, Cat. MM.1S (ATCC® CRL-2974™). Cells were cultured in RPMI (Thermo Fisher Scientific/Gibco Life Technologies Cat. #111875-093) plus 10% (v/v) FBS (Thermo Fisher Scientific/Gibco Life Technologies Cat. #26140-079) and 1% Penicillin-Streptomycin (Thermo Fisher Scientific/Gibco Life Technologies Cat. #15070063) at 37° C. in 5% CO2.
MM1.S cells were trypsinized cell viability count performed, and cells suspended in complete media at 5,556 cells/ml. Cells were then seeded (90 μl/well) into a 96-well round black/clear bottom, ULA (Ultra-Low Attachment surface plate (Corning cat #4520) at a density of 500 cells/well. Cells were then incubated for 16 hours at 37° C. and 5% CO2. Compound dilution plates were prepared in 96-well, clear U-bottom, polypropylene plates (Corning 3365) in 100% DMSO at 10 mM stock concentration in duplicate wells, using a 10-point serial dilution (1:3 dilutions). Compounds were diluted to 1:100 in growth medium. Then 10 μl of diluted compounds were added to each well of the cell plates using a Beckman FX liquid handling system such that the highest compound concentration tested was 10 μM final, with a 0.1% final DMSO concentration in the total volume of 100 μl. Plates were incubated for 10 total days at 37° C. and 5% CO2. Fresh media containing compound was refreshed at 5 days treatment.
Finally, the treatment plates were removed from the incubator and 100 μl of CellTiter-Glo Luminescent reagent was added to each well, and plates were equilibrated in the dark for 30 minutes. Plates were read on the PHERAstar plate reader using the 96-well with Luminescent reading mode. IC50 values were calculated using a four-parameter fit with GraphPad Prism version 9.5.1 or in house modified IDBS ActivityBase data analyzing package.
A general note: In ATP-based viability assays light output follows the ATP content of the culture.

Assay [3] has as its target KAT2A (Homo sapiens (Human), UniProt Q92830). The assay can be described thus: KAT2A acetyltransferase biochemical assay (RapidFire mass spectrometry, AcCoA to CoA).
Experimental: • A) Compound preparation • 1) Prepare 10 mM stock solutions in 100% DMSO from solid material. • 2) Serial dilute 10 mM, 1 mM, 0.1 or 0.01 mM compound stocks 3-fold in 100% DMSO for 11-point dose response. • B) Reagent preparation • 1) Prepare 1×assay buffer containing 40 mM bis tris propane pH 8.0, 10 mM NaCl, 0.5 mM EDTA, and 0.002% Tween-20. • 2) Dilute Histone peptide (CPC Scientific) and KAT enzyme together in assay buffer to 1.25×. • 3) Dilute AcCoA (Sigma) in assay buffer to 5×. • C) Enzyme reaction • 1) Final reaction conditions for each KAT assay in a 100ul assay reaction volume: • i) KAT2A 0.5 nM, 1 uM AcCoA, 5 uM H3 1-21 peptide, 90-minute reaction • ii) KAT2B 0.5 nM, 1 uM AcCoA, 5 uM H3 1-21 peptide, 90-minute reaction • 2) Add 2 ul of diluted compound series to the assay plate (96-well round-bottom polypropylene plates) or 2 ul of DMSO for control wells. • 3) Add 11 μL of 10% formic acid to 100% effect (HPE) control wells. • 4) Add 80 ul of 1.25× Histone peptide/KAT mix to the assay plate via Multidrop Combi (ThermoFisher). Incubate 15 min at room temperature. • 5) Add 20 ul of 5× AcCoA to the assay plate via Multidrop Combi. • 6) Stop the reaction after the indicated time with the addition of 11 ul of 10% formic acid via Multidrop Combi. • 7) Each reaction was analyzed using Rapid Fire mass spectrometry platform.
KAT enzymes were expressed using a baculovirus expression system and purified at Pfizer, La Jolla. […] Acetyl coenzyme A was purchased from Sigma-Aldrich (St. Louis, MO). All other biochemical reagents were purchased from Sigma-Aldrich or ThermoFisher Scientific (Waltham, MA).
KAT assays were performed at room temperature in assay buffer containing 1 μM AcCoA, 5 μM histone peptide, 40 mM bis tris propane pH 8.0, 10 mM NaCl, 0.5 mM EDTA 0.002% Tween-20. 80 ul of 1.25× Histone peptide/enzyme mix was added to a 96-well round-bottom polypropylene assay plate containing 2 ul of serially diluted test compound in 100% dimethyl sulfoxide (DMSO). To start the reaction, 20 ul of 5× AcCoA solution was added to the assay plate. KAT assays were terminated after 90 minutes with the addition of 11 ul of 10% formic acid. All assays used histone H3 (1-21) peptide. The final enzyme concentration for each KAT was as follows: KAT2A, 0.5 nM; KAT2B, 0.5 nM. […] Each reaction was analyzed using Rapid Fire mass spectrometry platform. This methodology leverages an Agilent 6495 triple quadrupole (QQQ) mass spectrometer coupled to a RapidFire model 365 to specifically capture and measure KAT2 acetyltransferase activity, converting AcCoA (substrate) to CoA (product).
Area under the curve (AUC) for both substrate and product peaks was determined for KAT2 at M.W. 809.6 [Substrate+H]+ and 767.3 [Product+H]+ with a +/−1 Da tolerance, respectively. Acetyltransferase activity (% of DMSO control) was calculated by: ((AUCProduct/AUCsubstrate)-AUCHPE)/(AUCZPE-AUCHPE))*100. Ki values were determined by fitting the % acetyltransferase activity at each inhibitor concentration to the Morrison equation for tightbinding competitive inhibitors using Pfizer proprietary curve fitting software.
To determine the inhibition of KAT enzymatic activity by test compounds, assay reactions were conducted in a volume of 100 μL in 96-well round-bottom polypropylene assay plate. The reactions were performed in assay buffer (40 mM bis tris propane, pH 8, 10 mM NaCl, 0.5 mM EDTA, 0.002% Tween-20).
[4] abbreviates: Homo sapiens, HT-1080, H3K9AC sandwich ELISA.
Setting [5] is: read-out: KAT2A Ki at 1 μM AcCoA, 5 μM H3 1-21 peptide, 0.5 nM KAT2A, 90-minute reaction.
[6] abbreviates: KAT2A Ki at 1 μM AcCoA, 5 μM H3 1-21 peptide, 0.5 nM KAT2A, 90-minute reaction.

KAT2A, sequence (Q92830 whole entry): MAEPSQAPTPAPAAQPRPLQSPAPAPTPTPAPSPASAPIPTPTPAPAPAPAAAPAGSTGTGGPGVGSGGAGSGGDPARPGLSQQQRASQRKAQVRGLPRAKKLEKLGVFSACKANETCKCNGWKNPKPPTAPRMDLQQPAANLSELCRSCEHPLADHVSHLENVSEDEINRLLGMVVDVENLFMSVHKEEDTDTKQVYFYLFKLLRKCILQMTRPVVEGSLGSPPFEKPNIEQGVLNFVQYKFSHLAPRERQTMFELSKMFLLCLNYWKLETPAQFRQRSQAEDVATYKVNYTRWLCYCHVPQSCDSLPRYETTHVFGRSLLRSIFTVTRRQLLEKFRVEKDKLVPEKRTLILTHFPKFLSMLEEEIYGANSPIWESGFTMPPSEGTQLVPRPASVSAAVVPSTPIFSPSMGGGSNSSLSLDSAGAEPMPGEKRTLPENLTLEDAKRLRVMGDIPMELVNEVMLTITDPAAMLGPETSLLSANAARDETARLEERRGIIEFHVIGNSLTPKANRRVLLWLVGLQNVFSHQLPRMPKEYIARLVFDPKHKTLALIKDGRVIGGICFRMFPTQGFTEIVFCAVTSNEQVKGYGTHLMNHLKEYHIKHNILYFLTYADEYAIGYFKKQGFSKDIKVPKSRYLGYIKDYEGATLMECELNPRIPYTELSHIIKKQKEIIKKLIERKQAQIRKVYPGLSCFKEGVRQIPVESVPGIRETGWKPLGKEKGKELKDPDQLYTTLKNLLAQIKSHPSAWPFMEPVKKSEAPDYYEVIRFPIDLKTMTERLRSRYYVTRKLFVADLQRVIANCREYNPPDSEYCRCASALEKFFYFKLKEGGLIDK

As to `[2H]C([2H])([2H])N1CC(C)(C)C[C@H]1C(=O)N[C@@H]1CC[C@@H](Oc2ccc(C(C)(C)C(=O)NS(C)(=O)=O)cc2-c2cccc(F)c2C2CCC2)C1` [Example E5], the IC50 in assay [1] (setting [4]) came to 4.83 nM; in assay [2] (Homo sapiens, MM1.S, 240 h), 11.9 nM. For the same compound, the inhibition constant Ki in assay [3] (setting [5]) is 0.31 nM.
The corresponding values for `CC(C)c1ccccc1-c1cc(CC(=O)NS(=O)(=O)C(C)C)ccc1O[C@@H]1CC[C@@H](NC(=O)[C@@]2(F)CNC3(CCC3)C2)C1` [Example C55, (7S)-7-fluoro-N-[(1R,3R)-3-({5-[2-oxo-2-(propane-2-sulfonamido)ethyl]-2′-(propan-2-yl)[1,1′-biphenyl]-2-yl}oxy)cyclopentyl]-5-azaspiro[3.4]octane-7-carboxamide] are 0.8 nM, 2.5 nM and 0.11 nM.
Taken in the same sequence, the figures for `CC(C)c1ccccc1-c1cc(C(=O)O)ccc1O[C@@H]1CC[C@@H](NC(=O)[C@@]2(F)CNC3(CCC3)C2)C1` [Example A39, 6-{[(1R,3R)-3-{[(7S)-7-fluoro-5-azaspiro[3.4]octane-7-carbonyl]amino}cyclopentyl]oxy}-2′-(propan-2-yl)[1,1′-biphenyl]-3-carboxylic acid] were 6.4 nM, 29.7 nM and 0.35 nM.
`C[C@H](C(=O)O)c1ccc(O[C@@H]2CC[C@@H](NC(=O)[C@@]3(F)CNC4(CCC4)C3)C2)c(-c2cccc(F)c2C2CCC2)c1` (single isomer, unassigned) [Example A20]: the IC50 in assay [1] (H3K9AC sandwich ELISA) amounted to 9.3 nM; in assay [2] it was 186 nM. In addition, the Ki in assay [3] (setting [5]) was determined as 2.53 nM.
Turning to `CC(C)c1ccccc1-c1cc(CC(=O)NS(=O)(=O)C2(C)CC2)ccc1O[C@@H]1CC[C@@H](NC(=O)[C@@]2(F)CNC3(CCCC3)C2)C1` (single isomer, unassigned) [Example C61], the IC50 turned out to be 0.2 nM in assay [1] (setting [4]) and 0.7 nM in assay [2] (Homo sapiens, MM1.S, 240 h). Also, the inhibition constant (Ki) in assay [3] (setting [5]) turned out to be 0.07 nM.
`O=C(O)Cc1ccc(O[C@@H]2CC[C@@H](NC(=O)[C@@]3(F)CNC4(CCCC4)C3)C2)c(-c2cccc(F)c2C2CCC2)c1` (single isomer, unassigned) [Example A25]: the IC50 in assay [1] (H3K9AC sandwich ELISA) was determined as 4.22 nM; in assay [2] (Homo sapiens, MM1.S, 240 h), 26 nM. Moreover, the inhibition constant Ki in assay [3] (setting [5]) was determined as 0.68 nM.
As for `CCc1c(F)cccc1-c1cc(C(=O)O)ccc1O[C@@H]1CC[C@@H](NC(=O)[C@@]2(F)CNC3(CCCC3)C2)C1` (single isomer, unassigned) [Example A42], the IC50 in assay [1] (H3K9AC sandwich ELISA) worked out at 8.4 nM; in assay [2], 37.4 nM. Further, in assay [3] (setting [5]), the Ki came to 0.41 nM.
`CN1CC(C)(C)C[C@H]1C(=O)N[C@@H]1CC[C@@H](Oc2ccc(CC(=O)NS(C)(=O)=O)cc2-c2cccc(F)c2C2CCC2)C1` [Example E2, N-{(1R,3R)-3-[(2′-cyclobutyl-3′-fluoro-5-{2-[(methanesulfonyl)amino]-2-oxoethyl}[1,1′-biphenyl]-2-yl)oxy]cyclopentyl}-1,4,4-trimethyl-L-prolinamide]: the IC50 in assay [1] (setting [4]) was 10.8 nM; in assay [2] (Homo sapiens, MM1.S, 240 h), 61.4 nM. The same compound registered a Ki in assay [3] (setting [6]) of 0.66 nM.
As to `CN1CC(C)(C)C[C@H]1C(=O)N[C@@H]1CC[C@@H](Oc2ccc(C(C)(C)C(=O)NS(C)(=O)=O)cc2-c2ccc(F)c(F)c2C2CCC2)C1` [Example E11, N-{(1R,3R)-3-[(2′-cyclobutyl-3′,4′-difluoro-5-{1-[(methanesulfonyl)amino]-2-methyl-1-oxopropan-2-yl}[1,1′-biphenyl]-2-yl)oxy]cyclopentyl}-1,4,4-trimethyl-L-prolinamide], the IC50 in assay [1] (setting [4]) stood at 24.2 nM; in assay [2] (Homo sapiens, MM1.S, 240 h), 73.4 nM. Also, the Ki in assay [3] (setting [5]) came out at 1.7 nM.
Taken in the same sequence, the figures for `CCS(=O)(=O)NC(=O)C(C)(C)c1ccc(OC[C@H]2C[C@H](NC(=O)[C@@]3(F)CNC4(CCC4)C3)C2)c(-c2cccc(F)c2C2CCC2)c1` (single isomer, unassigned) [Example G5, (7Rξ)-N-{(1r,3r)-3-[({2′-cyclobutyl-5-[1-(ethanesulfonamido)-2-methyl-1-oxopropan-2-yl]-3′-fluoro[1,1′-biphenyl]-2-yl}oxy)methyl]cyclobutyl}-7-fluoro-5-azaspiro[3.4]octane-7-carboxamide] were 9.5 nM, 36.2 nM and 0.17 nM.
In the case of `O=C(O)c1ccc(O[C@@H]2CC[C@@H](NC(=O)[C@@]3(F)CNCC4(CCC4)C3)C2)c(-c2cccc(F)c2C2CCC2)c1` (single isomer, unassigned) [Example A34], the IC50 turned out to be 1.4 nM in assay [1] (H3K9AC sandwich ELISA) and 7.8 nM in assay [2] (Homo sapiens, MM1.S, 240 h). For the same compound, in assay [3] (setting [5]), the Ki came to 0.21 nM.
In the case of `CC(C)(C(=O)NS(C)(=O)=O)c1ccc(O[C@@H]2CC[C@@H](NC(=O)[C@@]3(F)CNC4(CCC4)C3)C2)c(-c2cccc(F)c2C2CCC2)c1` [Example C1, (7S)—N-{(1R,3R)-3-[(2′-cyclobutyl-3′-fluoro-5-{1-[(methanesulfonyl)amino]-2-methyl-1-oxopropan-2-yl}[1,1′-biphenyl]-2-yl)oxy]cyclopentyl}-7-fluoro-5-azaspiro[3.4]octane-7-carboxamide], the IC50 was 18 nM in assay [1] (setting [4]) and 36.8 nM in assay [2] (Homo sapiens, MM1.S, 240 h). The Ki in assay [3] (setting [5]) was determined as 0.43 nM.
`CC(C(=O)NS(C)(=O)=O)c1ccc(O[C@@H]2CC[C@@H](NC(=O)[C@@H]3CC(C)(C)CN3C)C2)c(-c2cccc(F)c2C2CCC2)c1` (single isomer, unassigned) [Example E9]: the results for the IC50 in assay [1] (H3K9AC sandwich ELISA) and in assay [2] were 3.89 nM and 6.32 nM, respectively. The Ki in assay [3] (setting [6]) is 0.21 nM.
Consider `CC(C)S(=O)(=O)NC(=O)C(C)(C)c1cnc(O[C@@H]2CC[C@@H](NC(=O)[C@@]3(F)CNC4(CCC4)C3)C2)c(-c2cccc(F)c2C2CCC2)c1` [Example C65, (7S)-N-[(1R,3R)-3-({3-(2-cyclobutyl-3-fluorophenyl)-5-[2-methyl-1-oxo-1-(propane-2-sulfonamido)propan-2-yl]pyridin-2-yl}oxy)cyclopentyl]-7-fluoro-5-azaspiro[3.4]octane-7-carboxamide], for which the IC50 in assay [1] (setting [4]) worked out at 3.8 nM; in assay [2] (Homo sapiens, MM1.S, 240 h), 31.8 nM. The Ki in assay [3] (setting [5]) turned out to be 0.16 nM.
Taken in the same sequence, the figures for `CC(C)c1ccccc1-c1cc(CC(=O)O)ccc1O[C@@H]1CC[C@@H](NC(=O)[C@@H]2CC(C)(C)CN2C)C1` [Example D11, [2′-(propan-2-yl)-6-({(1R,3R)-3-[(1,4,4-trimethyl-L-prolyl)amino]cyclopentyl}oxy)[1,1′-biphenyl]-3-yl]acetic acid] were 98.5 nM, 497 nM and 91.9 nM.
With `CC(C)S(=O)(=O)NC(=O)C(C)(C)c1ccc(O[C@@H]2CC[C@@H](NC(=O)[C@@]3(F)CNC(C)(C)C3)C2)c(-c2cccc(F)c2C2CCC2)c1` (single isomer, unassigned) [Example B17], the IC50 in assay [1] (H3K9AC sandwich ELISA) worked out at 3.49 nM; in assay [2] it was 41.7 nM. In addition, the Ki in assay [3] (setting [5]) turned out to be 0.1 nM.
For the compound `CN1CC(C)(C)C[C@H]1C(=O)N[C@@H]1CC[C@@H](Oc2ccc(C(C)(C)C(=O)NS(C)(=O)=O)cc2-c2cccc(F)c2C2CC2)C1` [Example E7, N-{(1R,3R)-3-[(2′-cyclopropyl-3′-fluoro-5-{1-[(methanesulfonyl)amino]-2-methyl-1-oxopropan-2-yl}[1,1′-biphenyl]-2-yl)oxy]cyclopentyl}-1,4,4-trimethyl-L-prolinamide], the IC50 in assay [1] (setting [4]) amounted to 34.2 nM; in assay [2] (Homo sapiens, MM1.S, 240 h), 202 nM. The Ki in assay [3] (setting [5]) was found to be 26.6 nM.
On to `CCS(=O)(=O)NC(=O)C(C)(C)c1ccc(O[C@@H]2CC[C@@H](NC(=O)[C@@]3(F)CNCC4(CCC4)C3)C2)c(-c2cccc(F)c2C2CCC2)c1` (single isomer, unassigned) [Example B31], for which the IC50 in assay [1] (H3K9AC sandwich ELISA) came out at 2.1 nM; in assay [2] (Homo sapiens, MM1.S, 240 h), 1.4 nM. The Ki in assay [3] (setting [5]) is 0.04 nM.
In the case of `CCc1c(F)cccc1-c1cc(C(C)(C)C(=O)NS(C)(=O)=O)ccc1O[C@@H]1CC[C@@H](NC(=O)[C@@H]2CC(C)(C)CN2C)C1` [Example E10, N-{(1R,3R)-3-[(2′-ethyl-3′-fluoro-5-{1-[(methanesulfonyl)amino]-2-methyl-1-oxopropan-2-yl}[1,1′-biphenyl]-2-yl)oxy]cyclopentyl}-1,4,4-trimethyl-L-prolinamide], the IC50 in assay [1] (setting [4]) came out at 21.3 nM; in assay [2] (Homo sapiens, MM1.S, 240 h), 126 nM. Also, the Ki in assay [3] (setting [5]) was found to be 26.4 nM.
As for `CC(C)c1ccccc1-c1cc(C(=O)O)ccc1O[C@@H]1CC[C@@H](NC(=O)[C@@]2(F)CNC3(CCCC3)C2)C1` (single isomer, unassigned) [Example A41], the values for the IC50 in assay [1] (H3K9AC sandwich ELISA) and in assay [2] were 3 nM and 9.2 nM, respectively.

As a reminder, the IC50 is the concentration needed to halve the response being measured. As a reminder, the Ki is a dissociation constant, usually derived from enzyme kinetics or from competition with a known ligand.
